Source: ChEMBL document CHEMBL1687916, “Non-nucleoside inhibitors of human adenosine kinase: synthesis, molecular modeling, and biological studies” (J Med Chem, 2011)

molecular target: Adenosine kinase (Homo sapiens, UniProt P55263); assay: Inhibition of human adenosine kinase; conditions: not given
Sequence (P55263 whole entry): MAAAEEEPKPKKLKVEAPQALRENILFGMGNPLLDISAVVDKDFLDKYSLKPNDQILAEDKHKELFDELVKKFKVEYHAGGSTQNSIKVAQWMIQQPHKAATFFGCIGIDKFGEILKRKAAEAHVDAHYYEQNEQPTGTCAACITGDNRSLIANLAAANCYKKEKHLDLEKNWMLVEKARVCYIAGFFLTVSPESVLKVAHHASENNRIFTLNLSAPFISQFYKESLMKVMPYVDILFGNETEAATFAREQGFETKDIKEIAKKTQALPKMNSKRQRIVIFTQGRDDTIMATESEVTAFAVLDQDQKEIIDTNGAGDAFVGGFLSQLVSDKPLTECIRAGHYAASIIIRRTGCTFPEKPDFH

Row | Structure (SMILES) | IC50
1 | CC(=O)OC1=C(c2ccccc2)Oc2ccccc2-n2cccc21 | Not Active
2 | CC(=O)OC1=C(c2ccccc2)Sc2ccccc2-n2cccc21 | Not Active

same assay, conditions: read-out: IC50

Row | Structure (SMILES) | IC50 [µM]
3 | CCC1(c2ccc(CSc3cnccn3)cc2)Oc2ccccc2-n2cccc2C1=O (racemic) | 7
4 | CCC1(c2ccc(CSc3cccc(OC)c3)cc2)Oc2ccccc2-n2cccc2C1=O (racemic) | 12.5
5 | CCC1(c2ccc(CSc3c(Cl)cccc3Cl)cc2)Oc2ccccc2-n2cccc2C1=O (single isomer, unassigned; (+)) | 7.5
6 | CCC1(c2cccc(C)c2)Oc2ccccc2-n2cccc2C1=O (racemic) | 150
7 | CCC1(c2ccc(CSc3cccc(C)c3)cc2)Oc2ccccc2-n2cccc2C1=O (racemic) | 21.4
8 | CCC1(c2ccc(CSc3ccc(OC)cc3)cc2)Oc2ccccc2-n2cccc2C1=O (racemic) | 14
9 | CCC1(c2ccc(CSc3c(Cl)cccc3Cl)cc2)Oc2ccccc2-n2cccc2C1=O (racemic) | 20
10 | CCN(CC)CCc1cccc(OCc2ccc(C3(CC)Oc4ccccc4-n4cccc4C3=O)cc2)c1 (racemic) | 200
11 | CCC1(c2ccc(CSc3ccc(F)c(Cl)c3)cc2)Oc2ccccc2-n2cccc2C1=O (racemic) | 11
12 | O=C1c2cccn2-c2ccccc2OC1c1ccccc1 (racemic) | 100
13 | CCC1(c2ccc(CSc3ccc(Cl)c(Cl)c3)cc2)Oc2ccccc2-n2cccc2C1=O (racemic) | 10
14 | CCC1(c2ccc(C)cc2)Oc2ccccc2-n2cccc2C1=O (racemic) | 80
15 | CCC1(c2ccc(CSc3ccc([N+](=O)[O-])cc3)cc2)Oc2ccccc2-n2cccc2C1=O (racemic) | 6.2
16 | CN(C)c1ccc2n1-c1ccccc1SC(c1ccccc1)C2=O (racemic) | > 1000
17 | CCC1(c2ccc(CSc3ccc(OC(F)(F)F)cc3)cc2)Oc2ccccc2-n2cccc2C1=O (racemic) | 6.7
18 | CCC1(c2ccc(CSc3ccc(Cl)cc3Cl)cc2)Oc2ccccc2-n2cccc2C1=O (racemic) | 22.5
19 | CCC1(c2ccc(COc3cccc(CCN4CCCC4)c3)cc2)Oc2ccccc2-n2cccc2C1=O (racemic) | 150
20 | CCC1(c2ccc(CSc3c(F)c(F)cc(F)c3F)cc2)Oc2ccccc2-n2cccc2C1=O (racemic) | 8
21 | CCC1(c2ccc(CSc3ncccn3)cc2)Oc2ccccc2-n2cccc2C1=O (racemic) | 7
22 | CCC1(c2ccc(CSc3cc(Cl)ccc3Cl)cc2)Oc2ccccc2-n2cccc2C1=O (racemic) | 14
23 | O=C1c2cccn2-c2ccccc2OC1c1ccc(CSc2cccc(C(F)(F)F)c2)cc1 (racemic) | 9

Further lines, results first:

Row | IC50 [µM] | Structure (SMILES)
24 | 4.4 | O=C1c2cccn2-c2ccccc2OC1c1ccc(CSc2ccccc2Cl)cc1 (racemic)
25 | 3 | CCC1(c2ccc(CSc3c(C)cccc3Cl)cc2)Oc2ccccc2-n2cccc2C1=O (racemic)
26 | 3.5 | CCC1(c2ccc(CSc3ncc[nH]3)cc2)Oc2ccccc2-n2cccc2C1=O (racemic)
27 | 2 | CCC1(c2ccc(CSc3ccc(C#C[Si](C)(C)C)cc3)cc2)Sc2ccccc2-n2cccc2C1=O (racemic)
28 | 4 | O=C1c2cccn2-c2ccccc2OC1c1ccc(CSc2ccccc2)cc1 (racemic)
29 | 4 | CCC1(c2ccc(CSc3cccc(F)c3)cc2)Oc2ccccc2-n2cccc2C1=O (racemic)
30 | 5 | CCC1(c2ccc(CSc3ccccc3Cl)cc2)Sc2ccccc2-n2cccc2C1=O (racemic)
31 | 2.5 | CCC1(c2ccc(CSc3ccc(F)cc3Cl)cc2)Oc2ccccc2-n2cccc2C1=O (racemic)
32 | 4.5 | CCC1(c2ccc(CSc3ccccn3)cc2)Oc2ccccc2-n2cccc2C1=O (racemic)
33 | 2 | CCC1(c2ccc(CSc3ccc(I)cc3Cl)cc2)Oc2ccccc2-n2cccc2C1=O (racemic)
34 | 3.2 | CCC1(c2ccc(CSc3cccc(OC(F)(F)F)c3)cc2)Oc2ccccc2-n2cccc2C1=O (racemic)
35 | 3 | CCC1(c2ccc(CSc3cccc(Cl)c3Cl)cc2)Oc2ccccc2-n2cccc2C1=O (racemic)
